The values that follow come from patent publication US20250296916A1, “BICYCLIC PIPERAZINONES AND THERAPEUTIC USES THEREOF” (Cytokinetics, Inc., priority 2022, published 2025).

One may read the EC50 as the concentration giving half of the maximal effect.

Assay [1] relates to rabbit skeletal myofibrils (approximately 90% fast fibers). Description: Activation of fast skeletal myofibrils (PUMA coupled-enzyme ATPase assay). As to conditions: concentration at which the compound increased the enzymatic activity by 40%; calcium at pCa25; PM12 buffer pH 6.8. In kind it is biochemical. In short, it runs like this: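 Rabbit psoas myofibrils (Triton-washed, ~90% fast fibers) at calcium giving 25% of maximal ATPase rate (pCa25). ADP regenerated via pyruvate kinase/lactate dehydrogenase coupling, NADH oxidation read as absorbance at 340 nm. Buffer 12 mM PIPES, 2 mM MgCl2, 1 mM DTT, pH 6.8.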

Assay [2] concerns ankle plantarflexor muscle contractile force. Description: Rat isometric ankle plantarflexor muscle force. The format is in vivo, Sprague Dawley rats. As to conditions: estimated concentration at which muscle force is 50% of pre-dose maximum tension, 30 Hz stimulation, continuous intravenous infusion over sixty minutes, female rats. The source says:
Female Sprague Dawley rats were placed under a stable anesthesic plane with inhaled isoflurane (1-5%). One incision was made on the mid-thigh region of the right leg to expose the sciatic nerve. To prevent co-contraction of the ankle dorsiflexors, an additional incision was made lateral to the patella to isolate and sever the peroneal nerve. Rats were then placed on a temperature-maintained in situ muscle analysis rig (Aurora Scientific, Model 806C). The knee was immobilized in a clamp between two sharpened screws and the foot was taped to a footplate attached to a force transducer (Aurora Scientific, Ontario, Canada). Stainless steel needle electrodes (0.10 mm) were hooked around the exposed sciatic nerve. Isometric ankle plantarflexor muscle contractile force was assessed with the ankle joint at 90° flexion. A 30 Hz electrical stimulation (under supramaximal voltage conditions) was applied to the nerve and the resulting muscle force was recorded via a servomotor. A pre-dose 30 Hz force response was established as the baseline force. A pre-dose 150 Hz force response was established as the maximum isometric force. Compounds were formulated in 50% polyethylene glycol (PEG): 16% Cavitron: 10% dimethylacetamide (DMA) and administered by continuous intravenous infusion over a sixty minute period. The muscle force response to compound was measured every two minutes over the dosing period. Data were reported as an estimated EC50 value, which is the concentration at which muscle force is 50% of the pre-dose maximum tension. In Table 4, “Example Compound” refers to the compound labeled with the same number in Table 2.

Structures are written as SMILES.

`CC(C)[C@H]1C(=O)Nc2cnccc2N1C(=O)c1cnn(C)c1` [Compound 88, (S)-2-isopropyl-1-(1-methyl-1H-pyrazole-4-carbonyl)-1,4-dihydropyrido[3,4-b]pyrazin-3(2H)-one]: the AC1.4 in assay [1] worked out at 0.85 µM. For the same molecule, in assay [2], the EC50 is 20.1 µM. For `CC[C@H](C)[C@H]1C(=O)Nc2cnccc2N1C(=O)c1cnn(C)c1` [Compound 89, (S)-2-((S)-sec-butyl)-1-(1-methyl-1H-pyrazole-4-carbonyl)-1,4-dihydropyrido[3,4-b]pyrazin-3(2H)-one], in assay [1], the AC1.4 came to 0.23 µM. Also, the EC50 in assay [2] was 23.9 µM. For `CCC[C@H]1C(=O)Nc2ccccc2N1C(=O)c1cnn(C)c1` [Compound 13, (S)-4-(1-methyl-1H-pyrazole-4-carbonyl)-3-propyl-3,4-dihydroquinoxalin-2(1H)-one], the AC1.4 in assay [1] is 0.13 µM. Besides, the EC50 in assay [2] is 15.7 µM. `CCC[C@H]1C(=O)Nc2ccccc2N1C(=O)c1cc2cccn2cn1` [Compound 70, (S)-3-propyl-4-(pyrrolo[1,2-c]pyrimidine-3-carbonyl)-3,4-dihydroquinoxalin-2(1H)-one]: the AC1.4 in assay [1] was 0.46 µM. Still for that read-out and setting: to `CC[C@H](C)[C@H]1C(=O)Nc2ccccc2N1C(=O)NCCO` [Compound 105, (S)-2-((S)-sec-butyl)-N-(2-hydroxyethyl)-3-oxo-3,4-dihydroquinoxaline-1(2H)-carboxamide] belongs 2.23 µM; to `CC[C@H](C)[C@H]1C(=O)Nc2ccccc2N1C(=O)N1CC[C@@H](CO)C1` [Compound 108, (S)-3-((S)-sec-butyl)-4-((R)-3-(hydroxymethyl)pyrrolidine-1-carbonyl)-3,4-dihydroquinoxalin-2(1H)-one], 2.77 µM. Regarding `CCC[C@H]1C(=O)Nc2ccccc2N1C(=O)c1cnc2[nH]ccc2c1` [Compound 26, (S)-3-propyl-4-(1H-pyrrolo[2,3-b]pyridine-5-carbonyl)-3,4-dihydroquinoxalin-2(1H)-one], in assay [1], the AC1.4 came to 0.56 µM. Take `CC(C)[C@H]1C(=O)Nc2ccccc2N1C(=O)c1cnc2[nH]ncc2c1` [Compound 83, (S)-3-isopropyl-4-(1H-pyrazolo[3,4-b]pyridine-5-carbonyl)-3,4-dihydroquinoxalin-2(1H)-one]: in assay [1], the AC1.4 is 0.06 µM. As for `CCC[C@H]1C(=O)Nc2ccccc2N1C(=O)c1ccc(N2CC(F)C2)nc1` [Compound 38, (S)-4-(6-(3-fluoroazetidin-1-yl)nicotinoyl)-3-propyl-3,4-dihydroquinoxalin-2(1H)-one], the AC1.4 in assay [1] is 1.58 µM. The same measure, in the same setting: to `CCC[C@H]1C(=O)Nc2ccccc2N1C(=O)c1ccc(OC(F)(F)F)nc1` [Compound 25, (S)-3-propyl-4-(6-(trifluoromethoxy)nicotinoyl)-3,4-dihydroquinoxalin-2(1H)-one] belongs 2.34 µM.
